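48-hour exposure; five concentrations; linearly interpolated endpoints. Here, GI50 denotes the concentration required for 50% inhibition of growth.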 The source made the active and inactive calls. Rule as the data show it: active = GI50 up to about 1.1 µM and inactive = higher.
What was measured:
Test in all cases: NCI-60 cell line screen, 48 h
K562 = tested on: K562
MOLT-4 = tested on: MOLT-4
PC-3 = tested on: PC-3
HL-60 = tested on: HL-60
SF-268 = tested on: SF-268
A549 = tested on: A549
SF-539 = tested on: SF-539
KM12 = tested on: KM12
786-0 = tested on: 786-0
T47D = tested on: T47D
UO-31 = tested on: UO-31
NCI-H460 = tested on: NCI-H460
SK-MEL-2 = tested on: SK-MEL-2
DU-145 = tested on: DU-145
RXF 393 = tested on: RXF 393
SW-620 = tested on: SW-620
M14 = tested on: M14
CAKI-1 = tested on: CAKI-1
SN12C = tested on: SN12C
U-251 = tested on: U-251

Compound | GI50 (K562) | GI50 (MOLT-4) | GI50 (PC-3) | GI50 (HL-60) | GI50 (SF-268) | GI50 (A549) | GI50 (SF-539) | GI50 (KM12) | GI50 (786-0) | GI50 (T47D) | GI50 (UO-31) | GI50 (NCI-H460) | GI50 (SK-MEL-2) | GI50 (DU-145) | GI50 (RXF 393) | GI50 (SW-620) | GI50 (M14) | GI50 (CAKI-1) | GI50 (SN12C) | GI50 (U-251)
C=C1C(=O)OC2/C=C(\C)C(O)CC(O)C(C)(O)CC(OC(=O)/C(C)=C/C)C12 (stereo not given) | 32.6 µM (inactive) | 1.34 µM (inactive) | 46.1 µM (inactive) | 39.9 µM (inactive) | 42.3 µM (inactive) | 53.6 µM (inactive) | 42.4 µM (inactive) | 29.6 µM (inactive) | 41.5 µM (inactive) | 65.5 µM (inactive) | 44.6 µM (inactive) | 32.1 µM (inactive) | 43.1 µM (inactive) | 34.3 µM (inactive) | > 60.1 µM (inactive) | 35.6 µM (inactive) | 60.1 µM (inactive) | 29 µM (inactive) | 39.8 µM (inactive) | 38.1 µM (inactive)
CN(C)CCCC1c2ccccc2Oc2ccc(C(F)(F)F)cc21 (stereo not given) | 5.9 µM (inactive) | 6.64 µM (inactive) | 13.7 µM (inactive) | 12.1 µM (inactive) | 14.3 µM (inactive) | 14.9 µM (inactive) | 13.3 µM (inactive) | 14.2 µM (inactive) | 12.4 µM (inactive) | 14.6 µM (inactive) | 1.82 µM (inactive) | 15 µM (inactive) | 14.6 µM (inactive) | 17.2 µM (inactive) | 7.19 µM (inactive) | 15.4 µM (inactive) | 5.75 µM (inactive) | 12.9 µM (inactive) | 13.5 µM (inactive) | 11.4 µM (inactive)
CC(=O)c1sc2[n+](c1C)C(=O)/C(=C\c1ccccc1Cl)S2 | 25.5 µM (inactive) | 22.4 µM (inactive) | 22.5 µM (inactive) | 20.7 µM (inactive) | 23.2 µM (inactive) | 19.6 µM (inactive) | 21.8 µM (inactive) | 17.3 µM (inactive) | 21.9 µM (inactive) | 15.7 µM (inactive) | 19.3 µM (inactive) | 16.3 µM (inactive) | 24 µM (inactive) | 18.7 µM (inactive) | 26.1 µM (inactive) | 17.3 µM (inactive) | 18.6 µM (inactive) | 24.5 µM (inactive) | 34.2 µM (inactive) | 16.6 µM (inactive)
CC1=CC(=O)c2c(O)cccc2C1=O [PLUMBAGIN] | 0.391 µM (active) | 0.236 µM (active) | 2.21 µM (inactive) | 0.152 µM (active) | 2.17 µM (inactive) | 11.5 µM (inactive) | 1.91 µM (inactive) | 6.17 µM (inactive) | 1.65 µM (inactive) | 0.434 µM (active) | 1.61 µM (inactive) | 3.64 µM (inactive) | 1.85 µM (inactive) | 1.65 µM (inactive) | 1.64 µM (inactive) | 1.91 µM (inactive) | 1.86 µM (inactive) | 1.83 µM (inactive) | 1.94 µM (inactive) | 6.17 µM (inactive)

From ChEMBL document CHEMBL1201862, “PubChem BioAssay data set” (2004)
